Measurements reported in patent US20220323385A1, “PHARMACEUTICAL COMPOSITION FOR AORTIC ANEURYSM PROPHYLAXIS AND PROCESSED FOOD” (priority 2019, published 2022).

Tested on: abdominal aortic aneurysm
Assay: rat abdominal aortic aneurysm induction model (catheter inserted in abdominal aorta and ligated, high-fat feed)
Type: in vivo, SD-male rats
Conditions: for Occurrence not confirmed (abdominal aortic aneurysm) / Occurrence confirmed (abdominal aortic aneurysm): number of rats; for Rupture rate (%) of abdominal aortic aneurysm: rats with observed abdominal aortic aneurysms; for Rupture rate (%) of abdominal aortic aneurysm / Frequency of occurrence (%) (Table 4, Rupture rate of abdominal aortic aneurysm): control group 28.6%; for survival rate (%): Example 2, FIG. 1; for diameter of the aorta in the abdominal aortic aneurysm induction part: Example 2, FIG. 2, control group about 4 mm; for Occurrence not confirmed (Table 4, Rupture rate of abdominal aortic aneurysm): rupture not observed; for Frequency of occurrence (%) (Table 4, Rupture rate of abdominal aortic aneurysm): rupture rate in rats with observed abdominal aortic aneurysms
Protocol: SD-male rats of 4 weeks old (70 g to 90 g) were used. Eighteen rats and eight rats were prepared as a control group and a medium chain fatty acid administration group, respectively.
Upon arrival, all rats were preliminarily fed normal feed without additional supplements for one week. Then, the medium chain fatty acid administration group was fed normal feed and forcibly administered with high-content neutral fats (decanoic acid occupied 98% of constituent fatty acids) in an amount of 1,145 mg/kg body-weight/day. The control group was fed normal feed and forcibly administered with water in an amount of 1,145 mg/kg body-weight/day.
In this test, the medium chain fatty acid was fed in the form of tricaprin. Tricaprin is a substance in which decanoic acid (C10), a linear saturated fatty acid having 10 carbon atoms, is bonded to glycerol.
From the second week after the arrival, all rats were fed high-fat feed. Then, the medium chain fatty acid administration group was forcibly administered with the high-content neutral fats in an amount of 1,145 mg/kg body-weight/day. Furthermore, the control group was forcibly administered with water in an amount of 1,145 mg/kg body-weight/day.
Three weeks after the arrival, an abdominal aortic aneurysm induction treatment was performed. In the abdominal aortic aneurysm induction treatment, a catheter is inserted in the rat abdominal aorta and the inserted catheter is ligated with the abdominal aorta. The treatment was performed according to the method disclosed in Patent Literature 3.
After that, for the next four weeks, the control group had been fed the high-fat feed and forcibly administered with water in an amount of 1,145 mg/kg body-weight/day. Furthermore, the medium chain fatty acid administration group had been fed the high-fat feed and forcibly administered with the high-content neutral fats. Then, four weeks after the abdominal aortic aneurysm induction treatment, the rats were euthanized and dissected.
Note that the abdominal aortic aneurysm was determined to have occurred if the blood vessel at the site where the abdominal aortic aneurysm induction treatment was performed dilated to twice or more its original thickness.
Next, test results obtained by using tricaprin (an ester of three decanoic acids and glycerol) and tricaprylin (an ester of three octanoic acids of C8 and glycerol) as the medium chain fatty acid is shown. The animal model preparation method is the same as that in Example 1. A group in which tricaprin (C10) was given is referred to as a tricaprin administration group and a group in which tricaprylin (C8) was given is referred to as a tricaprylin administration group.
Twenty-three, eleven, and eighteen model animals were prepared as a control group, the tricaprylin administration group, and the tricaprin administration group, respectively.
The horizontal axis indicates the number of days (day) from Day 0 when the abdominal aortic aneurysm induction treatment was performed, and the vertical axis indicates the survival rate (%). The survival rate declined on Day 17 in the control, while the survival rate remained 100% until Day 26 in the tricaprylin administration group. […] The tricaprin administration group maintained the 100% survival rate during the test period.
Referring to FIG. 2, the horizontal axis indicates which measurements are from the normal blood vessel and which are from the blood vessel at the abdominal aortic aneurysm induction part; the vertical axis indicates the diameter (mm) of the aorta. The normal blood vessel refers to the normal aorta at the upper and lower sides of the part in which the abdominal aortic aneurysm was induced.

[1] = Example 1, number of rats among rats with observed abdominal aortic aneurysms
[2] = Example 2, number of rats among rats with observed abdominal aortic aneurysms
[3] = Example 2, 11 rats tricaprylin group, 18 rats tricaprin group

Structure (SMILES)	Frequency of occurrence (%) of abdominal aortic aneurysm (Example 1, 1,145 mg/kg body-weight/day, four weeks after induction treatment, control group 38.9%) [%]	Rapture confirmed (abdominal aortic aneurysm) [1]	Rapture not confirmed (abdominal aortic aneurysm) [1]	Occurrence not confirmed (abdominal aortic aneurysm) (Example 1, 8 rats in group, 1,145 mg/kg body-weight/day forcibly administered, four weeks after induction treatment)	Occurrence confirmed (abdominal aortic aneurysm) (Example 1, 8 rats in group, vessel dilated to twice or more its original thickness, 1,145 mg/kg body-weight/day)	Rupture rate (%) of abdominal aortic aneurysm (Example 1, listed as Medium chain fatty acid) [%]	Rupture rate (%) of abdominal aortic aneurysm (Example 1, listed as medium chain fatty acid) [%]	survival rate (%) (during the test period)	diameter of the aorta in the abdominal aortic aneurysm induction part	Frequency of occurrence (%) of abdominal aortic aneurysm (Example 2, control group 30.4%) [%]	Occurrence confirmed (Table 4, Rupture rate of abdominal aortic aneurysm) [2]	Occurrence not confirmed (Table 4, Rupture rate of abdominal aortic aneurysm) [2]	Occurrence confirmed (abdominal aortic aneurysm) [3]	Occurrence not confirmed (abdominal aortic aneurysm) [3]	Frequency of occurrence (%) (Table 4, Rupture rate of abdominal aortic aneurysm) (Example 2)	Frequency of occurrence (%) (Table 4, Rupture rate of abdominal aortic aneurysm) (Example 2, listed as tricaprin)	survival rate (%) (until Day 26 after induction treatment, control declined on Day 17)
CCCCCCCCCC(=O)OCC(COC(=O)CCCCCCCCC)OC(=O)CCCCCCCCC [Tricaprin]	12.5	0	1	7	1	0	0.0	100	about 2.2 mm	5.6	0	1	1	17	0	0.0	–
CCCCCCCC(=O)OCC(COC(=O)CCCCCCC)OC(=O)CCCCCCC [Tricaprylin]	–	–	–	–	–	–	–	–	about 3.5 mm	27.3	1	2	3	8	33.3	–	100
